This note sets out measurements from patent publication USRE29675E, “O-(Halophenylcarbamyl)-N-(halophenyl) glycolamides” (Stauffer Chemical Company, priority 1977, dated 1978).

Common to all, as to type: cell-based
In one test the test system is stapylococcus aureus. The experiment in a line: In Vitro Vial Test (bactericidal, nutrient broth). Particulars: 168 h, sealed vial incubated one week, read-out: Concentration (PPM) Which Inhibited Growth. How it is done: The following test illustrates utility of the compounds in controlling bacteria. This test measures the bactericidal properties of a compound when in contact with a growing bacterium. The test is conducted by partially filling a 1-ounce vial with nutrient broth. Next the test compound is added to the vial at a certain concentration, expressed in parts per million, and mixed with the broth. A water suspension of cells of stapylococcus aureus is added. The vial is then sealed and incubated for one week.

A further test concerns Enterobacter aerogenes. The experiment in a line: In Vitro Agar Screening Test, bacteria. Particulars: Klebsiella aerogenes, nutrient agar, 37° C., indicates partial control at this concentration, read-out: Minimum Inhibitory Concentration. How it is done: (§1) This test measures the bactericidal, fungicidal and algaecidal properties of a compound when in contact with growing bacteria, fungi or algae in an artifical medium. The test is conducted by adding 20 ml. portions of a suitable warm sterile agar solution into 20 × 100 mm. Petri dishes. Then, the test compound, in 0.5 percent acetone solution, is added to the Petri dishes at levels of 1, 10 and 50 μg/ml. and mixed with the warm mobile agar solution. The treated agar mixture is then allowed to come to room temperature and solidify. Cells of the chosen organism are streaked on the surface of the solidified agar and are then incubated for such lengths of time that untreated samples containing no toxicant show luxurious growth typical of the particular organism. This time varies from 24 hours to one week depending on the particular organism. The fungi are incubated at 30° C. and the bacteria are incubated at 37° C. The algae are incubated at room temperature under artificial light. Nutrient agar is used as the medium in this test for the bacteria. Potato dextrose agar is used as the medium for the fungi with the exception of Trichophyton mentagrophytes for which Emmons agar is used. A modified Jack Meyers agar is used for the growth of the algae.
(§2) The extent of growth is noted at the end of the incubation period.
(§3) Representative organisms used in this test are as follows: […]

Another test has as its system Staphylococcus aureus. The experiment in a line: In Vitro Agar Screening Test, bacteria. Particulars: Stapylococcus aureus, nutrient agar, 37° C., read-out: Minimum Inhibitory Concentration. On the procedure:
as §1, §2, §3

Test [1] has as its system Brevibacterium ammoniagenes. Nature of the test: In Vitro Agar Screening Test, bacteria. Particulars: Corynebacterium ammoniagenes, nutrient agar, 37° C., read-out: Minimum Inhibitory Concentration. How it is done: as §1, §2, §3
A further test deals with Aspergillus oryzae. The experiment in a line: In Vitro Agar Screening Test, fungi. Particulars: potato dextrose agar, 30° C., read-out: Minimum Inhibitory Concentration. On the procedure: as §1, §2, §3
Test [2] has as its system Trichophyton mentagrophytes. Nature of the test: In Vitro Agar Screening Test, fungi. The settings on record: Emmons agar, 30° C., indicates partial control at this concentration, read-out: Minimum Inhibitory Concentration. How it is done:
as §1, §2, §3

The test system of another test is Scenedesmus obliquus. The experiment in a line: In Vitro Agar Screening Test, algae. The settings on record: Tetradesmus obliquus, modified Jack Meyers agar, room temperature, artificial light, indicates partial control at this concentration, read-out: Minimum Inhibitory Concentration. On the procedure: as §1, §2, §3
The test system of test [3] is Desulfovibrio desulfuricans. The experiment in a line: Sulfate Reducing Bacteria In Vitro Test. The settings on record: Sulfate API broth with tryptone, anaerobic, room temperature, 3 to 5 days, unit from method text, read-out: minimum inhibitory concentration necessary to control the organism. On the procedure: This test measures the bactericidal properties of a compound when in contact with a sulfate reducing bacteria, specifically Desulfovibrio desulfuricans. The test is conducted by dissolving the test compound in acetone to give an 0.5 percent solution. This toxicant is added to vials containing sterile Sulfate API broth with tryptone under anaerobic conditions at such levels to give final toxicant concentrations of 1, 5, 10 and 50 μg/ml. of solution. An inoculant solution of 0.5 ml of the growing organism, Desulfovibrio desulfuricans, is added to the vials followed by sufficient sterile distilled water to give a total of 10 ml. of solution in the vials. […] The following is a summary of the minimum inhibitory concentration necessary to control the organism.

Another test deals with Bacillus cereus. The experiment in a line: In Vitro Agar Screening Test, bacteria. Particulars: nutrient agar, 37° C., indicates partial control at this concentration, read-out: Minimum Inhibitory Concentration. How it is done:
as §1, §2, §3

≈ marks a conversion by molar mass, not a printed value.

Consider `O=C(COC(=O)Nc1ccc(Cl)cc1)Nc1ccc(Cl)c(Cl)c1` [Compound 1], for which the MIC in the test with stapylococcus aureus came to 0.25 µg/mL (≈ 0.669 µM); with Enterobacter aerogenes it was 1 µg/mL (≈ 2.68 µM); in the test with Staphylococcus aureus, 1 µg/mL (≈ 2.68 µM); in test [1] it was 5 µg/mL (≈ 13.4 µM); in the test with Aspergillus oryzae it was 5 µg/mL (≈ 13.4 µM); in test [2], 5 µg/mL (≈ 13.4 µM). The results for the MIC (in the test with Scenedesmus obliquus; in test [3]) were 1 µg/mL (≈ 2.68 µM) and 50 µg/mL (≈ 134 µM), respectively.

With `O=C(COC(=O)Nc1cccc(Br)c1)Nc1ccc(Cl)c(Cl)c1` [Compound 6], in the test with stapylococcus aureus, the MIC amounted to 0.5 µg/mL (≈ 1.2 µM).

For the compound `O=C(COC(=O)Nc1ccc(Cl)c(Cl)c1)Nc1ccc(Cl)c(Cl)c1` [Compound 5], the MIC in the test with stapylococcus aureus was determined as 1 µg/mL (≈ 2.45 µM).

Consider `O=C(COC(=O)Nc1cccc(Cl)c1)Nc1ccc(Cl)c(Cl)c1` [Compound 2, O-(3-Chlorophenylcarbamyl)-N-(3,4-dichlorophenyl)-glycolamide], for which the MIC in the test with stapylococcus aureus is 0.25 µg/mL (≈ 0.669 µM); in the test with Bacillus cereus, 1 µg/mL (≈ 2.68 µM); in the test with Staphylococcus aureus, 1 µg/mL (≈ 2.68 µM); in [1] it was 5 µg/mL (≈ 13.4 µM); in the test with Aspergillus oryzae, above 50 µg/mL; in [3] it was 10 µg/mL (≈ 26.8 µM).

Turning to `O=C(COC(=O)Nc1cccc(Cl)c1)Nc1ccc(Cl)cc1` [Compound 3], the MIC in the test on stapylococcus aureus stood at 5 µg/mL (≈ 14.7 µM).

For the compound `O=C(COC(=O)Nc1ccc(Cl)c(Cl)c1)Nc1ccc(Cl)cc1` [Compound 4], the MIC in the test on stapylococcus aureus was determined as 1 µg/mL (≈ 2.68 µM).
